# Results published in publication PMC2801615, “Sex Pheromone Receptor Specificity in the European Corn Borer Moth, Ostrinia nubilalis” (PLoS ONE, 2010).
# Molecular target: T1, OnOr6/2 (Ostrinia nubilalis, UniProt D3J5H9)
# T1 construct: gene OR6; full-length ORF (421-425 residues for the set) in pGEMHE; cRNA co-injected with OnOr2 in Xenopus oocytes; dimer with Or83b ortholog; with Odorant receptor coreceptor
# T1 sequence (D3J5H9 1-421): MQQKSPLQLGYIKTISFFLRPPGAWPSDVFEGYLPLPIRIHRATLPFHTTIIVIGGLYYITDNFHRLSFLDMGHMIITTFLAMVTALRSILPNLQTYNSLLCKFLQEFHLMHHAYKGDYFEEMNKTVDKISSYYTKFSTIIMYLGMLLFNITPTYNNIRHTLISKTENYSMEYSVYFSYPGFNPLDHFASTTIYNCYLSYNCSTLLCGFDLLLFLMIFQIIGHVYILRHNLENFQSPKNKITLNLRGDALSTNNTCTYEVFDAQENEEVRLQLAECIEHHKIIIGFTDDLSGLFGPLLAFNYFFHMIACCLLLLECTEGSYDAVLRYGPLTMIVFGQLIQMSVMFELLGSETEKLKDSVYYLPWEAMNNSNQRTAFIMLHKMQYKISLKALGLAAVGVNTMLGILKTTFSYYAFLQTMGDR
# T1 sequence (D3J5H5 1-473 partner): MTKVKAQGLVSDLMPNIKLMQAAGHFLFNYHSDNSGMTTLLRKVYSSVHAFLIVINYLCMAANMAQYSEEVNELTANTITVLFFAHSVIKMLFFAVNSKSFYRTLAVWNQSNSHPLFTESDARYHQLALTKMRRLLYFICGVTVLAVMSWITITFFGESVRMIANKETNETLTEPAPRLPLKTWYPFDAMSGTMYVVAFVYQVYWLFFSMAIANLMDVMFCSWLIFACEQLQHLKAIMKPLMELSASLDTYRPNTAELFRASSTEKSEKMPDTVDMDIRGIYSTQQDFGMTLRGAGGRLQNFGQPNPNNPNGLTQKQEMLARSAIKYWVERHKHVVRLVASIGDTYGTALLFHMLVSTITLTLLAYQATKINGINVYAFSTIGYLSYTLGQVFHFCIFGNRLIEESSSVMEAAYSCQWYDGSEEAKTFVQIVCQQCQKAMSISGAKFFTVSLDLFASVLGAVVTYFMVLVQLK
# Assay: two-electrode voltage clamp, Xenopus oocytes
# Assay type: cell-based
# Details: read-out: EC50 (μM ± SEM)
# Text: two-electrode voltage clamp, Xenopus oocytes on OnOr6/2
row,Structure (SMILES),EC50
1,"CC/C=C\CCCCCCCCCCOC(C)=O [Z11, Z11–14:OAc]",0.86 ± 0.27 µM

# Molecular target: T2, OnOr1/2 (Ostrinia nubilalis, UniProt D3J5H4)
# T2 construct: gene OR1; full-length ORF (421-425 residues for the set) in pGEMHE; cRNA co-injected with OnOr2 in Xenopus oocytes; dimer with Or83b ortholog; with Odorant receptor coreceptor
# T2 sequence (D3J5H4 1-424): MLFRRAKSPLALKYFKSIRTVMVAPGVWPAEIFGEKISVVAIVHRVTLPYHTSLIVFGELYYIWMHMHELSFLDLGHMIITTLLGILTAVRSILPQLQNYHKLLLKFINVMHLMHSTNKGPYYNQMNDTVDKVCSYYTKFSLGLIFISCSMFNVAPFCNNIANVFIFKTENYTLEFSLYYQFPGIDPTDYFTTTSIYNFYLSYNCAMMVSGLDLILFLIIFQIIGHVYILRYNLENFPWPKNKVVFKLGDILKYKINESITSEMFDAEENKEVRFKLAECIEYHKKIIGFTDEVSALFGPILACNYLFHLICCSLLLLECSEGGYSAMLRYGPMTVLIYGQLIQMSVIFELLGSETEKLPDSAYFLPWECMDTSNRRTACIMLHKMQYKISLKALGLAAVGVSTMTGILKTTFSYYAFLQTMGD
# T2 sequence (D3J5H5 1-473 partner): T1 sequence (D3J5H5 1-473 partner)
# Assay: two-electrode voltage clamp, Xenopus oocytes
# Assay type: cell-based
# Details: read-out: EC50 (μM ± SEM)
# Text: two-electrode voltage clamp, Xenopus oocytes on OnOr1/2
row,Structure (SMILES),EC50
1,"CC/C=C/CCCCCCCCCCOC(C)=O [E11, E11–14:OAc]",1.92 ± 0.2 µM
2,"C/C=C/CCCCCCCCCCCOC(C)=O [E12, E12–14:OAc]",0.26 ± 0.05 µM
3,"CCCC/C=C\CCCCCCCCOC(C)=O [Z9, Z9–14:OAc]",1.54 ± 0.33 µM
4,"CC/C=C\CCCCCCCCCCOC(C)=O [Z11, Z11–14:OAc]",0.34 ± 0.05 µM
5,"C/C=C\CCCCCCCCCCCOC(C)=O [Z12, Z12–14:OAc]",2.73 ± 0.24 µM
